Entries after “also recorded” stand apart in the source; their conditions may differ.
Legend:
[1] = test system: HepG2 human liver carcinoma cells; test: Oxygen consumption rate (OCR) in HepG2 cells; format: cell-based; conditions: control is 100
Experimental: (§1) In this assay, an XF24 extracellular flux analyzer (Seahorse Bioscience, North Billerica, Mass.) was used to measure mitochondrial oxygen consumption in intact cells. The XF24 analyzer creates a transient 7 μl chamber in specialized microplates that allows determination of oxygen and proton concentrations in real time through the measurement of oxygen sensitive dyes by the XF24 instrument. 24 hours prior to OCR measurement, fibroblasts were seeded into 20 wells of the 24 well tissue culture plate while 1 ml of XF Calibrant solution (Seahorse Bioscience, North Billerica, Mass.) was added to each well of a 24 well dual-analyte sensor cartridge (Seahorse Bioscience, North Billerica, Mass.). The sensor cartridge repositioned on the 24 well calibration plate, and the plate was incubated overnight at 37° C. without additional CO2.
The day of the experiment, the injection ports on the sensor cartridge were loaded with compound 1 or creatine as indicated at 10× concentrations and placed into the XF24 Flux Analyzer for automated calibration. During the sensor calibration, cells in each of the tissue culture well were rinsed once in 1 mL of unbuffered media. 675 μL of unbuffered media was then added to each well, and the plate was incubated for an hour in the absence of additional CO2. Plates were subsequently placed into the calibrated seahorse XF24 flux analyzer for bioenergetic analysis. An equivalent number of cells per well are plated using a cell counter. Further normalization is achieved by taking baseline measurements of OCR on a well-by-well basis, and the increase observed is a comparison to the same well prior to treatment. Thus each well serves as its own control.
Using the same procedure, the oxygen consumption rate (OCR) for additional compounds were measure in HepG2 human liver carcinoma cells. Compounds were added in concentrations ranging from 0.25 nM to 200 nM.

[2] = test system: recombinant CPK (Native Human Creatine Kinase); test: Determination of CPK activity (ATP hydrolysis/consumption, luciferase); format: biochemical; conditions: 5 mM compound or creatine, 1 mM ATP, CPK 10 units/well, compound 1 compared with equimolar creatine
Experimental: Disclosed herein is an in vitro assay for determining the activity of recombinant CPK on the modified creatine compounds. Recombinant CPK is mixed with ATP and a modified creatine compound of interest. ATP hydrolysis, a measure of the rate of transfer of the gamma phosphate from ATP to the guanidinium groups of the creatine subunit, was measured using luciferase. The rate of ATP hydrolysis/consumption for the modified creatine compound is then compared to the rate of ATP hydrolysis/consumption for creatine. An in vitro assay was performed to determine the activity of recombinant CPK on the modified creatine compounds (CK, Native Human Creatine Kinase from Cell Sciences Catalog No: CSI14786B). Recombinant CPK (10 units/well) is mixed with 1 mM ATP and the compound of example 1 (compound 1) at varying concentrations (5 mM, 2.5 mM, and 1 mM) or creatine (5 mM). ATP hydrolysis; a measure of the rate of transfer of the gamma phosphate from ATP to the guanidinium groups of the creatine subunit was then measured for each sample using luciferase. Luciferase is then added (GLO kit from Promega) according to manufacturer instructions. As ATP is consumed, light is emitted. Every 2 minutes we collected the emitted light in our plate reader in lumens. The data is collected over 30 minutes to generate a slope. The slope is a measure of ATP consumption. […]

fibroblasts = test: Oxygen consumption rate (OCR), XF24 extracellular flux analyzer, fibroblasts; format: cell-based; conditions: 5 nM to 500 nM, within thirty minutes of treatment, compared to 10 μM unmodified creatine
Experimental: as §1, with “CO2. The day of the experiment, the injection ports on the sensor cartridge were loaded with compound 1 or creatine as indicated at 10× concentrations and placed into the XF24 Flux Analyzer for automated calibration. During the sensor calibration, cells in each of the tissue culture well were rinsed once in 1 mL of unbuffered media. 675 μL of unbuffered media was then added to each well, and the plate was incubated for an hour in the absence of additional CO2. Plates were subsequently placed into the calibrated seahorse XF24 flux analyzer for bioenergetic analysis. […]” for “CO2.”

Complex I = Complex I (CI) activity microplate assay in treated fibroblasts; format: cell-based; conditions: 25 nM, within thirty minutes, compared to 10 μM unmodified creatine
Experimental: Complex I activity was determined using a CI microplate assay (MS 141) from MitoSciences (Eugene, Oreg.) according to the manufacturer's protocol. Fibroblasts were plated in T75 flasks. 24 hours after plating, the cells were treated with various concentrations of compound of example 1 in media for 30 min. The cells were then lysed, and the mitochondria were isolated using reagents provided in the CI assay kit according to the manufacturer's protocol. After determination of the protein concentrations, 20 μg of the purified mitochondria in a total volume of 200 μl was added in quadruplicate to the 96-well microplate and the CI enzyme was immunocaptured within the wells. CI activity was measured colorimetrically with a PHERAstar FS (BMG LABTECH Inc, Cary, N.C., USA) as a change in the absorbance following the oxidation of NADH to NAD+ and the simultaneous reduction of a dye which leads to increased absorbance at 450 nm over time (0-105 min). The average±SD of the quadruplicate values for each time point and treatment group were graphed, and the rate of CI activity was determined by the initial slope (i.e., values in the linear range from 20 to 50 min), expressed as change in optical density per minute.

For `CN(CC(=O)N(C)CCC[P+](c1ccccc1)(c1ccccc1)c1ccccc1)C(=N)N` [Example 2, N^2-[ammonio(imino)methyl]-N,N^2-dimethyl-N-[3-(triphenylphosphonio)propyl]glycinamide bis(trifluoroacetate)], the OCR ([1]; 10 nM) was 106%.

For `CN(CC(=O)NCCC[P+](c1ccccc1)(c1ccccc1)c1ccccc1)C(=N)N` [Example 1, N^2-[ammonio(imino)methyl]-N^2-methyl-N-[3-(triphenylphosphonio)propyl]glycinamide bis(trifluoroacetate)], the “rate of ATP hydrolysis/consumption” value ([2]; bis(trifluoroacetate)) was “higher rate of ATP hydrolysis/consumption relative to creatine; also recorded: significantly higher rate of ATP hydrolysis/consumption than creatine”, the oxygen consumption rate (fibroblasts) was “significant increase in oxygen consumption rate” and the OCR ([1]; 10 nM) was 124%. For the same compound, the “Complex I activity (change in optical density per minute)” value (Complex I) was “significant increase in Complex I activity”.

In the case of `CN(CCC(C)(C)C(=O)NCCCC[P+](c1ccccc1)(c1ccccc1)c1ccccc1)C(=N)N.O=C(O)C(F)(F)F.O=C([O-])C(F)(F)F` [Example 7, {4-[(4-{[ammonio(imino)methyl](methyl)amino}-2,2-dimethylbutanoyl)amino]butyl}(triphenyl)phosphonium bis(trifluoroacetate)], the OCR ([1]; 20 nM) is reported as 112%.

For `CN(CCC(=O)NCCCC[P+](c1ccccc1)(c1ccccc1)c1ccccc1)C(=N)N.O=C(O)C(F)(F)F.O=C([O-])C(F)(F)F` [Example 5, N^3-[ammonio(imino)methyl]-N^3-methyl-N-[4-(triphenylphosphonio)butyl]-O-alaninamide bis(trifluoroacetate)], the OCR ([1]; 10 nM) was 117.9%.

In the case of `CN(CC1(C(=O)NCCC[P+](c2ccccc2)(c2ccccc2)c2ccccc2)CC1)C(=N)N.O=C(O)C(F)(F)F.O=C([O-])C(F)(F)F` [Example 8, [3-({[1-({[ammonio(imino)methyl](methyl)amino}methyl)cyclopropyl]carbonyl}amino)propyl](triphenyl)phosphonium bis(trifluoroacetate)], the OCR ([1]; 2.5 nM) is reported as 115.7%.

Compound `CN(CC1(C(=O)NCCC[P+](c2ccccc2)(c2ccccc2)c2ccccc2)CCOCC1)C(=N)N.O=C(O)C(F)(F)F.O=C([O-])C(F)(F)F` [Example 9, [3-({[4-({[ammonio(imino)methyl](methyl)amino}methyl)tetrahydro-2H-pyran-4-yl]carbonyl}amino)propyl](triphenyl)phosphonium bis(trifluoroacetate)] has an OCR ([1]; 2.5 nM) of 121.9%.

For `CN(CC(=O)O)C(=N)N` [creatine, 2-(carbamimidoyl-methyl-amino) acetic acid], the “rate of ATP hydrolysis/consumption” value [2] was “increase in ATP hydrolysis/consumption”.

`CN(CCCC(=O)NCCCC[P+](c1ccccc1)(c1ccccc1)c1ccccc1)C(=N)N.O=C(O)C(F)(F)F.O=C([O-])C(F)(F)F` [Example 6, {4-[(4-{[ammonio(imino)methyl](methyl)amino}butanoyl)amino]butyl}(triphenyl)phosphonium bis(trifluoroacetate)] was tested, and the OCR ([1]; 0.25 nM) was 121%.
